Several values for one entry are separate records, joined by “and”; a condition that tells them apart may be missing. Equal entries are not always repeated.
System: 188146-221-R-J1-PDC complex spheroid viability
Assay: Anticancer human tumor 188146-221-R-J1-PDC patient-derived colon adenocarcinoma cell line growth inhibition [POLQ]
Conditions: for viability, T/C: stronger effect = lower value
Description: Multicellular complex tumor spheroid response to Polymerase (POL) inhibitors (novobiocin, ART-558, RP6685) in combination with a variety of drugs and investigational agents in selected tumor cell lines
The POL inhibitors (novobiocin, ART-558, and RP6685) were evaluated both individually and in combination with standard of care and investigational anticancer small molecules within a complex spheroid model of solid tumors. . Complex spheroids include a stromal component modeled by human endothelial cells (HUVEC) and fibroblasts modeled by human mesenchymal stem cells (MSCs). The concentration ranges selected for each drug and investigational agent were based upon clinically achievable concentrations if the clinical Cmax of the agent was known.
Compounds. The drugs and investigational agents: novobiocin (NSC847541), ART-558 (NSC835418), RP-6685 (NSC848927), peposertib (NSC802822), ceralasertib (NSC780249), elimusertib (NSC800525), camonsertib (NSC841442), AZD-1390 (NSC803789), olaparib (NSC753686), talazoparib (NSC767125), rucaparib (NSC756644), sotorasib (NSC818433), MRTX-1133 (NSC836407), SN-38 (NSC673596), topotecan (NSC609699), epotoside (NSC141540), doxorubicin (NSC123127), gemcitabine (NSC613327), 5-fluorouracil (NSC19893), paclitaxel (NSC125973), vemurafenib (NSC761431), MSA-2 (NSC828583), SN-011 (NSC837082), adavosertib (NSC754352), prexasertib (NSC758257), carboplatin (NSC241240) and oxaliplatin (NSC266046), were obtained from the National Cancer Institute (NCI) Developmental Therapeutics Program Chemical Repository (21). The FDA-approved anticancer drug set is available from the Developmental Therapeutics Program at https://dtp.cancer.gov/organization/dscb/obtaining/. […] The stock solutions were prepared in dimethyl sulfoxide (DMSO, Sigma-Aldrich, St. Louis, MO, cat. D2650), except for the platinum compounds which were prepared in saline (Quality Biological, Gaithersburg, MD, cat. 114-055-101), at 800-fold the tested concentration and stored at -70 degrees C prior to their use. All drugs and investigational agents were tested over a range starting from a high concentration at or near the clinical Cmax and decreasing in half-log increments. If the clinical Cmax for an agent had not been determined, the highest concentration tested was 10 microM, except for SN-38, which was tested at a high concentration of 1 microM.
Cell Culture. All cells were maintained in an incubator at 37 degrees C and 5% CO2 with 95% humidity. The PDC lines were cultured according to standard operating procedures established by the NCI PDMR (https://pdmr.cancer.gov). Table 3 of the manuscript, lists the cell lines along with the number of the three cell types plated to form the mct-spheroids and media for tumor cell growth. After thawing, all PDC lines, except 997537-175-T-J1-PDC and 415267-285-R-J2-PDC, were cultured in Matrigel-coated flasks prepared with a working solution of 1X Ham's F-12 nutrient mix, without supplementation (Thermo Fisher Scientific, cat. 11765054), 100 U/mL penicillin-streptomycin (Thermo Fisher Scientific, cat. 15140122), and 2.5% Matrigel (Corning Inc., Corning, NY, cat. 354248) for the first three passages. The two PDC lines 997537-175-T-J1-PDC and 415267-285-R-J2-PDC were cultured on uncoated flasks. The 857933-349-R-J2-PDC line was cultured in 6C/Colon 1B media containing advanced DMEM/F-12 (Thermo Fisher Scientific, cat. 12634028), 10 mM HEPES (Thermo Fisher Scientific, cat. 15630080), 1X GlutaMAX supplement (Thermo Fisher Scientific, cat. 35050061), 0.1 mg/mL primocin (InvivoGen, San Diego, CA, cat. ant-pm-2), 10% defined fetal bovine serum, heat inactivated (HyClone Laboratories Inc., Logan, UT, cat. SH30070.03HI), 50% L-WRN conditioned media (ATCC, cat. CRL-3276), 1.25 mM N-Acetyl-L-cysteine (Sigma-Aldrich, cat. A9165), 10 mM nicotinamide (Sigma-Aldrich, cat. N0636), 1X B-27 supplement (Thermo Fisher Scientific, cat. 17504044), 1X N-2 supplement (Thermo Fisher Scientific, cat. […]

[1] = curve of first compound, second compound 0.0316 µM
[2] = curve of first compound, second compound 0.1 µM
[3] = curve of first compound, second compound 0.316 µM
[4] = curve of first compound, second compound 1 µM
[5] = curve of first compound, second compound 3.16 µM
[6] = curve of first compound, second compound 10 µM
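Further: spheroids exposed to compounds for seven days.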
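Wherever viability, T/C is given: 100% = DMSO vehicle control viability.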

## CC(=O)O[C@H]1C(=O)[C@@]2(C)[C@H]([C@H](OC(=O)c3ccccc3)[C@]3(O)C[C@H](OC(=O)[C@H](O)[C@@H](NC(=O)c4ccccc4)c4ccccc4)C(C)=C1C3(C)C)[C@]1(OC(C)=O)CO[C@@H]1C[C@@H]2O + COC1C(OC(N)=O)C(O)C(Oc2ccc3c(O)c(NC(=O)c4ccc(O)c(CC=C(C)C)c4)c(=O)oc3c2C)OC1(C)C
[1]
  IC50: 16.4 nM
[2]
  IC50: 17.2 nM
[3]
  IC50: 16.8 nM
[4]
  IC50: 14.4 nM
[5]
  IC50: 17.2 nM
[6]
  IC50: 16 nM
Second compound 0.0316 µM, first compound 0.00949 µM
  viability, T/C: 76%
Second compound 0.0316 µM, first compound 0.03 µM
  viability, T/C: 21%
Second compound 0.0316 µM, first compound 0.0949 µM
  viability, T/C: 10.8%
Second compound 0.0316 µM, first compound 0.3 µM
  viability, T/C: 10.2%
Second compound 0.0316 µM, first compound 0.949 µM
  viability, T/C: 10.4%
Second compound 0.0316 µM, first compound 3 µM
  viability, T/C: 9.91%
Second compound 0.1 µM, first compound 0.00949 µM
  viability, T/C: 80.1%
Second compound 0.1 µM, first compound 0.03 µM
  viability, T/C: 21.7%
Second compound 0.1 µM, first compound 0.0949 µM
  viability, T/C: 12.2%
Second compound 0.1 µM, first compound 0.3 µM
  viability, T/C: 9.8%
Second compound 0.1 µM, first compound 0.949 µM
  viability, T/C: 8.82%
Second compound 0.1 µM, first compound 3 µM
  viability, T/C: 9.35%
Second compound 0.316 µM, first compound 0.00949 µM
  viability, T/C: 75.9%
Second compound 0.316 µM, first compound 0.03 µM
  viability, T/C: 24.3%
Second compound 0.316 µM, first compound 0.0949 µM
  viability, T/C: 9.19%
Second compound 0.316 µM, first compound 0.3 µM
  viability, T/C: 11.9%
Second compound 0.316 µM, first compound 0.949 µM
  viability, T/C: 9.74%
Second compound 0.316 µM, first compound 3 µM
  viability, T/C: 11.2%
Second compound 1 µM, first compound 0.00949 µM
  viability, T/C: 66.3%
Second compound 1 µM, first compound 0.03 µM
  viability, T/C: 21.7%
Second compound 1 µM, first compound 0.0949 µM
  viability, T/C: 10.2%
Second compound 1 µM, first compound 0.3 µM
  viability, T/C: 10%
Second compound 1 µM, first compound 0.949 µM
  viability, T/C: 10.6%
Second compound 1 µM, first compound 3 µM
  viability, T/C: 9.98%
Second compound 3.16 µM, first compound 0.00949 µM
  viability, T/C: 84%
Second compound 3.16 µM, first compound 0.03 µM
  viability, T/C: 18.2%
Second compound 3.16 µM, first compound 0.0949 µM
  viability, T/C: 12.6%
Second compound 3.16 µM, first compound 0.3 µM
  viability, T/C: 8.24%
Second compound 3.16 µM, first compound 0.949 µM
  viability, T/C: 11.4%
Second compound 3.16 µM, first compound 3 µM
  viability, T/C: 10.8%
Second compound 10 µM, first compound 0.00949 µM
  viability, T/C: 75.6%
Second compound 10 µM, first compound 0.03 µM
  viability, T/C: 19.2%
Second compound 10 µM, first compound 0.0949 µM
  viability, T/C: 11.2%
Second compound 10 µM, first compound 0.3 µM
  viability, T/C: 9.41%
Second compound 10 µM, first compound 0.949 µM
  viability, T/C: 12.8%
Second compound 10 µM, first compound 3 µM
  viability, T/C: 11.8%

## CC(C)n1c(=O)n(C)c2cnc3cc(F)c(-c4ccc(OCCCN5CCCCC5)nc4)cc3c21
Compound 0.0316 µM
  viability, T/C: 96.9% and 102% and 108%
Compound 0.1 µM
  viability, T/C: 111% and 96.7% and 100%
Compound 0.316 µM
  viability, T/C: 88.3% and 89.4% and 92.5%
Compound 1 µM
  viability, T/C: 105% and 101% and 110%
Compound 3.16 µM
  viability, T/C: 104% and 106% and 88.8%
Compound 10 µM
  viability, T/C: 77% and 95.2% and 71.2%
Curve of compound
  IC50: > 10000 nM

## CC[C@@]1(O)C(=O)OCc2c1cc1n(c2=O)Cc2cc3c(CN(C)C)c(O)ccc3nc2-1 + COC1C(OC(N)=O)C(O)C(Oc2ccc3c(O)c(NC(=O)c4ccc(O)c(CC=C(C)C)c4)c(=O)oc3c2C)OC1(C)C
[1]
  IC50: > 100 nM
[2]
  IC50: > 100 nM
[3]
  IC50: > 100 nM
[4]
  IC50: > 100 nM
[5]
  IC50: > 100 nM
[6]
  IC50: > 100 nM
Second compound 0.0316 µM, first compound 0.000316 µM
  viability, T/C: 109%
Second compound 0.0316 µM, first compound 0.001 µM
  viability, T/C: 98.7%
Second compound 0.0316 µM, first compound 0.00316 µM
  viability, T/C: 102%
Second compound 0.0316 µM, first compound 0.01 µM
  viability, T/C: 101%
Second compound 0.0316 µM, first compound 0.0316 µM
  viability, T/C: 98.8%
Second compound 0.0316 µM, first compound 0.1 µM
  viability, T/C: 68.2%
Second compound 0.1 µM, first compound 0.000316 µM
  viability, T/C: 97.7%
Second compound 0.1 µM, first compound 0.001 µM
  viability, T/C: 100%
Second compound 0.1 µM, first compound 0.00316 µM
  viability, T/C: 89.8%
Second compound 0.1 µM, first compound 0.01 µM
  viability, T/C: 101%
Second compound 0.1 µM, first compound 0.0316 µM
  viability, T/C: 87.9%
Second compound 0.1 µM, first compound 0.1 µM
  viability, T/C: 66.5%
Second compound 0.316 µM, first compound 0.000316 µM
  viability, T/C: 106%
Second compound 0.316 µM, first compound 0.001 µM
  viability, T/C: 95.9%
Second compound 0.316 µM, first compound 0.00316 µM
  viability, T/C: 107%
Second compound 0.316 µM, first compound 0.01 µM
  viability, T/C: 98.1%
Second compound 0.316 µM, first compound 0.0316 µM
  viability, T/C: 89.2%
Second compound 0.316 µM, first compound 0.1 µM
  viability, T/C: 73.9%
Second compound 1 µM, first compound 0.000316 µM
  viability, T/C: 111%
Second compound 1 µM, first compound 0.001 µM
  viability, T/C: 104%
Second compound 1 µM, first compound 0.00316 µM
  viability, T/C: 109%
Second compound 1 µM, first compound 0.01 µM
  viability, T/C: 104%
Second compound 1 µM, first compound 0.0316 µM
  viability, T/C: 90.1%
Second compound 1 µM, first compound 0.1 µM
  viability, T/C: 79.3%
Second compound 3.16 µM, first compound 0.000316 µM
  viability, T/C: 104%
Second compound 3.16 µM, first compound 0.001 µM
  viability, T/C: 102%
Second compound 3.16 µM, first compound 0.00316 µM
  viability, T/C: 94.5%
Second compound 3.16 µM, first compound 0.01 µM
  viability, T/C: 91.6%
Second compound 3.16 µM, first compound 0.0316 µM
  viability, T/C: 102%
Second compound 3.16 µM, first compound 0.1 µM
  viability, T/C: 67.3%
Second compound 10 µM, first compound 0.000316 µM
  viability, T/C: 96.2%
Second compound 10 µM, first compound 0.001 µM
  viability, T/C: 90.7%
Second compound 10 µM, first compound 0.00316 µM
  viability, T/C: 99.5%
Second compound 10 µM, first compound 0.01 µM
  viability, T/C: 94.6%
Second compound 10 µM, first compound 0.0316 µM
  viability, T/C: 92.1%
Second compound 10 µM, first compound 0.1 µM
  viability, T/C: 62.9%

Reference: PubChem BioAssay AID1963851 (Molecular Pharmacology Branch, DTP, NCI, 2024)
